Measurements published in US12458650B2, “Urination disorder-improving agent” (ASKA Pharmaceutical Co., Ltd., priority 2019, dated 2025).

System: model of a urination disorder associated with streptozocin-induced diabetes
Experiment: Test Example 6: urination disorder model associated with streptozocin-induced diabetes, compound A versus dutasteride
Format: in vivo, rat
Method: As described below, a model of a urination disorder associated with streptozocin-induced diabetes was prepared as a urination disorder model in accordance with Test Example 4 to evaluate the effects of the compound A and the compound C on a urination disorder. This model has no benign prostatic hyperplasia and is a model of a urination disorder associated with neuropathy and smooth muscle contraction disorder.
The body weights of Rats (male, Crl:CD(SD), 5-week-old; Charles River Laboratories Japan, Inc.) were measured. On the basis of the body weight, the rats were grouped or divided into two (2) groups. The day after the rats were grouped, a fist group received intraperitoneal administration of a citrate buffer (pH 4.5) (10 mL/kg) having a concentration of 0.1 mmol/L, and a second group received intraperitoneal administration of streptozocin (STZ; Sigma-Aldrich) (50 mg/kg). Streptozocin (STZ) was administered in the form of a solution of streptozocin having a concentration of 5 mg/mL in the citrate buffer.
About one (1) week after streptozocin (STZ) was administered, the body weight and the fasting blood glucose were measured. In the streptozocin (STZ) administration group (the second group), individuals having a fasting blood glucose level of not less than 300 mg/dL were used as animals with induced diabetes. These animals with induced diabetes are a model having no abnormality of the prostate (having no benign prostatic hyperplasia). On the basis of the body weight and the fasting blood glucose level, the animals (models) with induced diabetes were grouped or divided into three (3) groups by randomized, multivariable block allocation.
To the three model groups with induced diabetes, a 0.5 v/v % Polysorbate 80 solution (0.5% P) (10 mL/kg), the compound A (3 mg/kg), and the compound C (dutasteride) (0.3 mg/kg) were orally administered, respectively, wherein the administration schedule in all groups was a frequency of once a day, only on weekdays, over four (4) weeks. Moreover, to the above-mentioned first group, a 0.5 v/v % Polysorbate 80 solution (0.5% P) (10 mL/kg) was orally administered in the same administration schedule (normal group). On the last day of administration, a cannula was inserted into and secured to the dome of the bladder under isoflurane anesthesia, and cystometry (Cystometogram, CMG) was conducted in the order of under awake condition and under urethane anesthesia to measure the intravesical pressure, the voided volume, and the residual urine volume. After the completion of the measurement, the blood was collected under deep isoflurane anesthesia, and then the prostate (ventral prostate, dorsolateral prostate) was extracted and each was weighed. Moreover, the blood glucose level in the collected blood was measured.
The test substances and the dosage in the test system (rats having the urination disorder associated with diabetes) are as follows. • Normal group: citrate buffer 10 mL/kg (intraperitoneal administration), 0.5% P 10 mL/kg (oral administration) (n=10) • Solvent group (control group): STZ 50 mg/kg (intraperitoneal administration), 0.5% P 10 mL/kg (oral administration) (n=10) • Group A3: STZ 50 mg/kg (intraperitoneal administration), Compound A 3 mg/kg (oral administration) (n=10) • Group C0.3: STZ 50 mg/kg (intraperitoneal administration), Compound C (dutasteride) 0.3 mg/kg (oral administration) (n=10)
Urination parameter: In the same manner as in Test Example 4, the residual urine volume (mL) and the urination efficiency % were determined as urination parameters in each urination, and the average value of two measurements was taken as a measured value of each individual.
Prostate weight: In the same manner as in Test Example 4, the weight of the prostate (ventral prostate, dorsolateral prostate, and whole) was converted to a tissue weight per 100 g of the body weight. […]

[1] = Group A3: 3 mg/kg oral, 4 weeks, relative to solvent group

CC(=O)O[C@]1(C(C)=O)C[C@@H](O)[C@H]2[C@@H]3C=C(Cl)C4=CC(=O)OC[C@]4(C)[C@H]3CC[C@@]21C [Compound A, 17α-acetoxy-6-chloro-15β-hydroxy-2-oxa-4,6-pregnadiene-3,20-dione]
therapeutic effect on diabetes (blood glucose level) (Group A3: 3 mg/kg oral, 4 weeks): no therapeutic effect on diabetes
Dorsolateral prostate (atrophy rate) [1]: (40.2%)
Ventral prostate (atrophy rate) [1]: (40.0%)
Whole prostate (atrophy rate) [1]: (40.1%)
residual urine volume (Group A3: 3 mg/kg, cystometry under awake condition, vs solvent group (p<0.05), FIG. 19): significantly decreased
urination efficiency (Group A3: 3 mg/kg, cystometry under awake condition, vs solvent group (p<0.05), FIG. 20): significantly improved
bladder contraction force on urination by nomogram analysis (Group A3: 3 mg/kg, in comparison with the solvent group and Group C0.3, FIG. 21): strong bladder contraction force
